From US11859169B2, “Nano-ligand for promoting cell adhesion and regeneration of macrophages and method of promoting cell adhesion and regeneration of macrophages by using the same” (Korea University Research and Business Foundation, priority 2020, dated 2024)

Test system: Macrophages (RAW 264.7)
Experiment: adhesion structure assembly-mediated M2 phenotype under ROCK, myosin II or actin polymerization inhibition
Type: cell-based
Conditions: M2-polarizing medium; for reduction of Arg-1 immunofluorescence on the magnet side / reduction of adherent macrophage area on the magnet side / reduction of adherent macrophage aspect ratio on the magnet side: 36 hours, 50 μM Y27632, 10 μM blebbistatin

Structure (SMILES) | reduction of Arg-1 immunofluorescence on the magnet side | reduction of adherent macrophage area on the magnet side | reduction of adherent macrophage aspect ratio on the magnet side | decreases in the area, aspect ratio, and Arg-1 fluorescence of the adherent macrophages (2 μg/mL cytochalasin D)
C[C@@H](N)[C@H]1CC[C@H](C(=O)Nc2ccncc2)CC1 [Y27632] | 29% | 32% | 33% | 
Cc1ccc2c(c1)C(=O)C1(O)CCN(c3ccccc3)C1=N2 (stereo not shown) [blebbistatin] | 29% | 33% | 31% | 
C=C1[C@@H](C)[C@H]2[C@H](Cc3ccccc3)NC(=O)[C@]23[C@H](OC(C)=O)/C=C/[C@@](C)(O)C(=O)[C@@H](C)C/C=C/[C@H]3[C@@H]1O [cytochalasin D] |  |  |  | clearly observed
